target: T1, MAGL (Homo sapiens, UniProt Q99685); test: 2-AG assay (MAGL inhibitory activity, hydrolysis of 2-arachidonoylglycerol to arachidonic acid followed by mass spectrometry); assay type: biochemical; conditions: 8 μM 2-arachidonoylglycerol, 15 min pre-incubation, 30 min incubation at RT, RapidFire MS readout
T1 sequence (Q99685 1-303): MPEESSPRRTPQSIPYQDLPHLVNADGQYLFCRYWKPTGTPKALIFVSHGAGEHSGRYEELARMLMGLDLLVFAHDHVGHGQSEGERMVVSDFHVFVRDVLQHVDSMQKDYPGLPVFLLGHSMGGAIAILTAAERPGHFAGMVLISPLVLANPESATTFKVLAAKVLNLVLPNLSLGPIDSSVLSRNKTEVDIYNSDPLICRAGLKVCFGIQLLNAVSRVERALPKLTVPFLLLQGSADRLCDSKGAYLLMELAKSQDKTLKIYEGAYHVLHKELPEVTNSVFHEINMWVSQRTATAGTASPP
From the text: Compounds of formula (I) were profiled for MAGL inhibitory activity by determining the enzymatic activity by following the hydrolysis of the natural substrate 2-arachidonoylglycerol (2-AG) resulting in arachidonic acid, which can be followed by mass spectrometry. This assay is hereinafter abbreviated “2-AG assay”.
Compounds of formula (I) were profiled for MAGL inhibitory activity by determining the enzymatic activity by following the hydrolysis of the natural substrate 2-arachidonoylglycerol (2-AG) resulting in arachidonic acid, which can be followed by mass spectrometry. This assay is hereinafter abbreviated “2-AG assay”. The 2-AG assay was carried out in 384 well polypropylene assay plates. […] Compound dilutions were added to MAGL protein in assay buffer (50 mM TRIS, 1 mM EDTA, 0.01% (v/v) Tween-20, 2.5% (v/v) DMSO). After shaking, the plate was incubated for 15 min at RT. To start the reaction, 2-arachidonoylglycerol in assay buffer was added. The final concentrations in the assay was […] for MAGL protein and 8 μM 2-arachidonoylglyerol. After shaking and 30 min incubation at RT, the reaction was quenched by the addition of two assay volumes of acetonitrile containing 4 μM of d8-arachidonic acid. The amount of arachidonic acid formed was traced by an online SPE system (Agilent Rapidfire) coupled to a triple quadrupole mass spectrometer. A C18 SPE cartridge (Agilent G9205A) was used in an acetonitrile/water liquid setup. The mass spectrometer was operated in negative electrospray mode following the mass transitions 303.1→259.1 for arachidonic acid and 311.1→267.0 for d8-arachidonic acid. The activity of the compounds was calculated based on the ratio of intensities [arachidonic acid/d8-arachidonic acid].

| Structure (SMILES) | IC50 [nM] |
| --- | --- |
| O=C(N1CC2(CC(n3cnc(C4CC4)n3)C2)C1)N1CC2(C1)CN(S(=O)(=O)c1ccc(F)cc1Cl)C2 [Example 228, [2-(2-chloro-4-fluoro-phenyl)sulfonyl-2,6-diazaspiro[3.3]heptan-6-yl]-[6-(3-cyclopropyl-1,2,4-triazol-1-yl)-2-azaspiro[3.3]heptan-2-yl]methanone] | 4.2 |
| Cc1cc(C(=O)N2CC3(CC(n4cnc(C5CC5)n4)C3)C2)cnc1OCC1(C)CC1 [Example 143, [6-(3-cyclopropyl-1,2,4-triazol-1-yl)-2-azaspiro[3.3]heptan-2-yl]-[5-methyl-6-[(1-methylcyclopropyl)methoxy]-3-pyridyl]methanone] | 53.2 |
| O=C(N1CC(n2cc(OCC(F)(F)F)cn2)C1)N1CC2(CC(n3cnc(C4CC4)n3)C2)C1 [Example 165, [6-(3-cyclopropyl-1,2,4-triazol-1-yl)-2-azaspiro[3.3]heptan-2-yl]-[3-[4-(2,2,2-trifluoroethoxy)pyrazol-1-yl]azetidin-1-yl]methanone] | 102 |
| O=C(N1CC2(CCC(Cc3ccc(C(F)(F)F)nc3)C2)C1)N1CC2(CC(c3ccc(C(F)(F)F)nc3)C2)C1 (stereo not shown) [Example 535, [6-[6-(trifluoromethyl)-3-pyridyl]-2-azaspiro[3.3]heptan-2-yl]-[6-[[6-(trifluoromethyl)-3-pyridyl]methyl]-2-azaspiro[3.4]octan-2-yl]methanone] | 170 |
| O=C(N1CC(c2ccc(C3(c4nnn[nH]4)CC3)cc2)C1)N1CC2(CC(n3cnc(C4CC4)n3)C2)C1 [Example 252, [6-(3-cyclopropyl-1,2,4-triazol-1-yl)-2-azaspiro[3.3]heptan-2-yl]-[3-[4-[1-(1H-tetrazol-5-yl)cyclopropyl]phenyl]azetidin-1-yl]methanone] | 16.1 |
| Cc1cc(C(=O)N2CC3(CC(n4cnc(C5CC5)c4)C3)C2)cnc1OCC1(C(F)(F)F)CC1 [Example 25, [6-(4-cyclopropylimidazol-1-yl)-2-azaspiro[3.3]heptan-2-yl]-[5-methyl-6-[[1-(trifluoromethyl)cyclo-propyl]methoxy]-3-pyridyl]methanone] | 12.2 |
| O=C(N1CC(C#Cc2ccccc2C(F)F)C1)N1CC2(CC(n3cnc(C4CC4)c3)C2)C1 [Example 139, [6-(4-cyclopropylimidazol-1-yl)-2-azaspiro[3.3]heptan-2-yl]−[3-[2-[2-(difluoromethyl)phenyl]ethynyl]azetidin-1-yl]methanone] | 11.5 |
| O=C(N1CC(Oc2ccc(Cl)cc2F)C1)N1CC2(CC(n3cnc(C4CC4)n3)C2)C1 [Example 99, (3-(4-chloro-2-fluorophenoxy)azetidin-1-yl)(6-(3-cyclopropyl-1H-1,2,4-triazol-1-yl)-2-azaspiro[3.3]heptan-2-yl)methanone] | 9.5 |
| O=C(N1CC(Oc2ccc(C(F)(F)F)c(C3CC3)c2)C1)N1CC2(CC(c3ccc(C(F)(F)F)nc3)C2)C1 [Example 528] | 245 |
| CC1(O)CN(c2ccc(C3CN(C(=O)N4CC5(CC(n6cnc(C(F)(F)F)n6)C5)C4)C3)cn2)C1 [Example 453, [3-[6-(3-hydroxy-3-methyl-azetidin-1-yl)-3-pyridyl]azetidin-1-yl]-[6-[3-(trifluoromethyl)-1,2,4-triazol-1-yl]-2-azaspiro[3.3]heptan-2-yl]methanone] | 39.4 |
| O=C(N1CC2(CC(n3cnc(C4CC4)n3)C2)C1)N1CC2(CN(Cc3ccc(C(F)(F)F)cc3F)C2)C1 [Example 189, [6-(3-cyclopropyl-1,2,4-triazol-1-yl)-2-azaspiro[3.3]heptan-2-yl]-[6-[[2-fluoro-4-(trifluoromethyl)phenyl]methyl]-2,6-diazaspiro[3.3]heptan-2-yl]methanone] | 0.2 |
| CC(Oc1cnn(C2CN(C(=O)N3CC4(CC(n5cnc(C6CC6)n5)C4)C3)C2)c1)C(F)(F)F (stereo not shown) [Example 249, [6-(3-cyclopropyl-1,2,4-triazol-1-yl)-2-azaspiro[3.3]heptan-2-yl]-[3-[4-(2,2,2-trifluoro-1-methyl-ethoxy)pyrazol-1-yl]azetidin-1-yl]methanone] | 14.4 |
| O=C(N1CC2(CC(n3cnc(C4CC4)n3)C2)C1)N1CC2(C1)CN(S(=O)(=O)N1CCOCC1)C2 [Example 318, [6-(3-cyclopropyl-1,2,4-triazol-1-yl)-2-azaspiro[3.3]heptan-2-yl]-(2-morpholinosulfonyl-2,6-diazaspiro[3.3]heptan-6-yl)methanone] | 291 |
| CNC(=O)c1ccccc1S(=O)(=O)N1CC2(CN(C(=O)N3CC4(CC(n5cnc(C6CC6)n5)C4)C3)C2)C1 [Example 334] | 993 |
| Cc1cnn(C2CC3(C2)CN(C(=O)c2cnc(OCC4(C(F)(F)F)CC4)c(C)c2)C3)c1 [Example 147, [6-(4-methylpyrazol-1-yl)-2-azaspiro[3.3]heptan-2-yl]-[5-methyl-6-[[1-(trifluoromethyl)cyclopropyl]methoxy]-3-pyridyl]methanone] | 340 |
| O=C(N1CC2(CC(n3cnc(C4CC4)n3)C2)C1)N1CC2(C1)CN(S(=O)(=O)CC1CCCCC1)C2 [Example 244, [2-(cyclohexylmethylsulfonyl)-2,6-diazaspiro[3.3]heptan-6-yl]-[6-(3-cyclopropyl-1,2,4-triazol-1-yl)-2-azaspiro[3.3]heptan-2-yl]methanone] | 9 |
| CC(C)(C(=O)O)c1cccc(OC2CN(C(=O)N3CC4(CC(n5cnc(C6CC6)n5)C4)C3)C2)c1 [Example 279, 2-[3-[1-[6-(3-cyclopropyl-1,2,4-triazol-1-yl)-2-azaspiro[3.3]heptane-2-carbonyl]azetidin-3-yl]oxyphenyl]-2-methyl-propanoic acid] | 38 |
| O=C(N1CC(Oc2nccc(C3CC3)c2Cl)C1)N1CC2(CC(n3cnc(C4CC4)n3)C2)C1 [Example 185, [3-[(3-chloro-4-cyclopropyl-2-pyridyl)oxy]azetidin-1-yl]-[6-(3-cyclopropyl-1,2,4-triazol-1-yl)-2-azaspiro[3.3]heptan-2-yl]methanone] | 0.1 |
| O=C(N1CC(OCc2ccc(C(F)(F)F)c(F)c2)C1)N1CC2(CC(n3cnc(C4CC4)c3)C2)C1 [Example 103, [6-(4-cyclopropylimidazol-1-yl)-2-azaspiro[3.3]heptan-2-yl]-[3-[[3-fluoro-4-(trifluoromethyl)phenyl]methoxy]azetidin-1-yl]methanone] | 9.9 |
| O=C(N1C[C@H]2C[C@H](Oc3ccc(C(F)(F)F)c(F)c3)C[C@H]2C1)N1CC2(CC(n3cnc(C4CC4)n3)C2)C1 [Example 117, [6-(3-cyclopropyl-1,2,4-triazol-1-yl)-2-azaspiro[3.3]heptan-2-yl]-[rac-(3aS,6aR)-5-[3-fluoro-4-(trifluoromethyl)phenoxy]-3,3a,4,5,6,6a-hexahydro-1H-cyclopenta[c]pyrrol-2-yl]methanone] | 3.5 |
| COc1cc(C(F)(F)F)ccc1CNC1CN(C(=O)N2CC3(CC(c4ccc(C(F)(F)F)nc4)C3)C2)C1 [Example 518, [3-[[2-methoxy-4-(trifluoromethyl)phenyl]methylamino]azetidin-1-yl]-[6-[6-(trifluoromethyl)-3-pyridyl]-2-azaspiro[3.3]heptan-2-yl]methanone] | 610 |
| O=C(c1cnc(OCC2(C(F)(F)F)CC2)nc1)N1CC2(CC(n3cnc(C4CC4)n3)C2)C1 [Example 31, [6-(3-cyclopropyl-1,2,4-triazol-1-yl)-2-azaspiro[3.3]heptan-2-yl]-[2-[[1-(trifluoromethyl)cyclo-propyl]methoxy]pyrimidin-5-yl] methanone] | 353 |
| COc1c(OC2CN(C(=O)N3CC4(CC(n5cnc(C6CC6)n5)C4)C3)C2)cccc1C(F)(F)F [Example 219, (6-(3-cyclopropyl-1H-1,2,4-triazol-1-yl)-2-azaspiro[3.3]heptan-2-yl)(3-(2-methoxy-3-(trifluoromethyl)phenoxy)azetidin-1-yl)methanone] | 2.2 |
| CS(=N)(=O)c1ccc(CC2CC3(C2)CN(C(=O)N2CC4(CC(n5cnc(C6(O)CC6)n5)C4)C2)C3)cc1 (stereo not shown) [Example 405, [6-[3-(1-hydroxycyclopropyl)-1,2,4-triazol-1-yl]-2-azaspiro[3.3]heptan-2-yl]-[6-[[4-(methylsulfonimidoyl)phenyl]methyl]-2-azaspiro[3.3]heptan-2-yl]methanone] | 169 |
| Cc1cn(C2CC3(C2)CN(C(=O)N2CC4(CC(Cc5ccc(F)cc5F)C4)C2)C3)cn1 [Example 218, [6-[(2,4-difluorophenyl)methyl]-2-azaspiro[3.3]heptan-2-yl]-[6-(4-methylimidazol-1-yl)-2-azaspiro[3.3]heptan-2-yl]methanone] | 2.1 |

— patent US20240199587A1, “HETEROCYCLIC COMPOUNDS” (Hoffmann-La Roche Inc., priority 2021, published 2024)
